Reference: PMC5224920, “Assessing the mechanism and therapeutic potential of modulators of the human Mediator complex-associated protein kinases” (eLife, 2016)

System: 12 single or co-culture in vitro tissue models of primary cells
Assay: Culture/co-culture cell model panel, extracellular biomarkers (DiscoveRx)
Format: cell-based, human
Details: for sTNF-alpha / B cell Proliferation / PBMC Cytotoxicity / Secreted IgG / sIL-2 / sIL-6 / sIL-17A / sIL-17F: BT; for CCL2/MCP-1 / CD54/ICAM-1 / CD106/VCAM-1 / CXCL8/IL-8 / CXCL9/MIG / CXCL10/IP-10 / CXCL11/I-TAC / Collagen I / Collagen III / EGFR / M-CSF / MMP-1 / PAI-I / Proliferation_72hr / SRB / TIMP-1 / TIMP-2: HDF3CGF stimulated fibroblasts

Structure (SMILES): Cc1n[nH]c2ncc(C(=O)N3CCC[C@H]3c3ccc(Cl)cc3)cc12 [CMPD4]
- sTNF-alpha (1.00E4 nM): 0.086
- B cell Proliferation (1.11E3 nM): 0.005
- PBMC Cytotoxicity (1.11E3 nM): 0.008
- Secreted IgG (1.11E3 nM): -0.271
- sIL-2 (1.11E3 nM): -0.010
- sIL-6 (1.11E3 nM): 0.011
- sIL-17A (1.11E3 nM): 0.280
- sIL-17F (1.11E3 nM): -0.402
- sTNF-alpha (1.11E3 nM): 0.063
- B cell Proliferation (1.23E2 nM): 0.027
- PBMC Cytotoxicity (1.23E2 nM): 0.018
- Secreted IgG (1.23E2 nM): -0.256
- sIL-2 (1.23E2 nM): 0.014
- sIL-6 (1.23E2 nM): 0.030
- sIL-17A (1.23E2 nM): 0.185
- sIL-17F (1.23E2 nM): -0.282
- sTNF-alpha (1.23E2 nM): 0.057
- B cell Proliferation (1.37E1 nM): -0.012
- PBMC Cytotoxicity (1.37E1 nM): 0.011
- Secreted IgG (1.37E1 nM): -0.141
- sIL-2 (1.37E1 nM): 0.014
- sIL-6 (1.37E1 nM): 0.027
- sIL-17A (1.37E1 nM): 0.187
- sIL-17F (1.37E1 nM): -0.0019
- sTNF-alpha (1.37E1 nM): 0.046
- B cell Proliferation (3.33E3 nM): -0.018
- PBMC Cytotoxicity (3.33E3 nM): -0.00188
- Secreted IgG (3.33E3 nM): -0.298
- sIL-2 (3.33E3 nM): -0.066
- sIL-6 (3.33E3 nM): 0.010
- sIL-17A (3.33E3 nM): 0.312
- sIL-17F (3.33E3 nM): -0.374
- sTNF-alpha (3.33E3 nM): 0.093
- B cell Proliferation (3.70E2 nM): -0.072
- PBMC Cytotoxicity (3.70E2 nM): -0.003
- Secreted IgG (3.70E2 nM): -0.278
- sIL-2 (3.70E2 nM): -0.005
- sIL-6 (3.70E2 nM): -0.000869
- sIL-17A (3.70E2 nM): 0.240
- sIL-17F (3.70E2 nM): -0.290
- sTNF-alpha (3.70E2 nM): 0.057
- B cell Proliferation (4.12E1 nM): -0.040
- PBMC Cytotoxicity (4.12E1 nM): -0.011
- Secreted IgG (4.12E1 nM): -0.161
- sIL-2 (4.12E1 nM): 0.032
- sIL-6 (4.12E1 nM): 0.045
- sIL-17A (4.12E1 nM): 0.263
- sIL-17F (4.12E1 nM): -0.163
- sTNF-alpha (4.12E1 nM): 0.025
- B cell Proliferation (4.57E0 nM): 0.00188
- PBMC Cytotoxicity (4.57E0 nM): 0.009
- Secreted IgG (4.57E0 nM): 0.00642
- sIL-2 (4.57E0 nM): 0.059
- sIL-6 (4.57E0 nM): -0.013
- sIL-17A (4.57E0 nM): 0.029
- sIL-17F (4.57E0 nM): -0.027
- sTNF-alpha (4.57E0 nM): 0.044
- CCL2/MCP-1 (1.00E4 nM): -0.062
- CD54/ICAM-1 (1.00E4 nM): -0.066
- CD106/VCAM-1 (1.00E4 nM): 0.015
- CXCL8/IL-8 (1.00E4 nM): -0.071
- CXCL9/MIG (1.00E4 nM): -0.035
- CXCL10/IP-10 (1.00E4 nM): 0.016
- CXCL11/I-TAC (1.00E4 nM): -0.012
- Collagen I (1.00E4 nM): 0.017
- Collagen III (1.00E4 nM): 0.028
- EGFR (1.00E4 nM): -0.096
- M-CSF (1.00E4 nM): -0.031
- MMP-1 (1.00E4 nM): -0.059
- PAI-I (1.00E4 nM): -0.088
- Proliferation_72hr (1.00E4 nM): -0.248
- SRB (1.00E4 nM): -0.00367
- TIMP-1 (1.00E4 nM): -0.111
- TIMP-2 (1.00E4 nM): -0.065
- CCL2/MCP-1 (1.11E3 nM): -0.100
- CD54/ICAM-1 (1.11E3 nM): -0.070
- CD106/VCAM-1 (1.11E3 nM): 0.050
- CXCL8/IL-8 (1.11E3 nM): -0.111
- CXCL9/MIG (1.11E3 nM): -0.045
- CXCL10/IP-10 (1.11E3 nM): 0.029
- CXCL11/I-TAC (1.11E3 nM): -0.023
- Collagen I (1.11E3 nM): -0.003
- Collagen III (1.11E3 nM): 0.052
- EGFR (1.11E3 nM): -0.103
- M-CSF (1.11E3 nM): -0.041
- MMP-1 (1.11E3 nM): -0.071
- PAI-I (1.11E3 nM): -0.065
- Proliferation_72hr (1.11E3 nM): -0.244
- SRB (1.11E3 nM): -0.002
- TIMP-1 (1.11E3 nM): -0.078
- TIMP-2 (1.11E3 nM): 0.064
- CCL2/MCP-1 (1.23E2 nM): -0.076
- CD54/ICAM-1 (1.23E2 nM): -0.078
- CD106/VCAM-1 (1.23E2 nM): 0.069
- CXCL8/IL-8 (1.23E2 nM): -0.081
- CXCL9/MIG (1.23E2 nM): -0.042
- CXCL10/IP-10 (1.23E2 nM): 0.037
- CXCL11/I-TAC (1.23E2 nM): -0.032
- Collagen I (1.23E2 nM): 0.025
- Collagen III (1.23E2 nM): 0.068
- EGFR (1.23E2 nM): -0.097
- M-CSF (1.23E2 nM): -0.068
- MMP-1 (1.23E2 nM): -0.042
- PAI-I (1.23E2 nM): -0.031
- Proliferation_72hr (1.23E2 nM): -0.191
- SRB (1.23E2 nM): 0.024
- TIMP-1 (1.23E2 nM): -0.068
- TIMP-2 (1.23E2 nM): 0.076
- CCL2/MCP-1 (1.37E1 nM): -0.043
- CD54/ICAM-1 (1.37E1 nM): -0.058
- CD106/VCAM-1 (1.37E1 nM): 0.069
- CXCL8/IL-8 (1.37E1 nM): -0.024
- CXCL9/MIG (1.37E1 nM): -0.012
- CXCL10/IP-10 (1.37E1 nM): 0.038
- CXCL11/I-TAC (1.37E1 nM): -0.002
- Collagen I (1.37E1 nM): 0.048
- Collagen III (1.37E1 nM): 0.094
- EGFR (1.37E1 nM): -0.067
- M-CSF (1.37E1 nM): -0.052
- MMP-1 (1.37E1 nM): 0.006
- PAI-I (1.37E1 nM): 0.00043
- Proliferation_72hr (1.37E1 nM): -0.130
- SRB (1.37E1 nM): 0.016
- TIMP-1 (1.37E1 nM): -0.033
- TIMP-2 (1.37E1 nM): 0.049
- CCL2/MCP-1 (3.33E3 nM): -0.117
- CD54/ICAM-1 (3.33E3 nM): -0.064
- CD106/VCAM-1 (3.33E3 nM): 0.050
- CXCL8/IL-8 (3.33E3 nM): -0.103
- CXCL9/MIG (3.33E3 nM): -0.054
- CXCL10/IP-10 (3.33E3 nM): 0.032
- CXCL11/I-TAC (3.33E3 nM): -0.022
- Collagen I (3.33E3 nM): 0.006
- Collagen III (3.33E3 nM): 0.051
- EGFR (3.33E3 nM): -0.111
- M-CSF (3.33E3 nM): -0.031
- MMP-1 (3.33E3 nM): -0.057
- PAI-I (3.33E3 nM): -0.062
- Proliferation_72hr (3.33E3 nM): -0.194
- SRB (3.33E3 nM): -0.008
- TIMP-1 (3.33E3 nM): -0.075
- TIMP-2 (3.33E3 nM): -0.041
- CCL2/MCP-1 (3.70E2 nM): -0.066
- CD54/ICAM-1 (3.70E2 nM): -0.075
- CD106/VCAM-1 (3.70E2 nM): 0.067
- CXCL8/IL-8 (3.70E2 nM): -0.100
- CXCL9/MIG (3.70E2 nM): -0.034
- CXCL10/IP-10 (3.70E2 nM): 0.040
- CXCL11/I-TAC (3.70E2 nM): -0.017
- Collagen I (3.70E2 nM): 0.018
- Collagen III (3.70E2 nM): 0.066
- EGFR (3.70E2 nM): -0.123
- M-CSF (3.70E2 nM): -0.056
- MMP-1 (3.70E2 nM): -0.053
- PAI-I (3.70E2 nM): -0.013
- Proliferation_72hr (3.70E2 nM): -0.187
- SRB (3.70E2 nM): 0.021
- TIMP-1 (3.70E2 nM): -0.069
- TIMP-2 (3.70E2 nM): 0.123
- CCL2/MCP-1 (4.12E1 nM): -0.141
- CD54/ICAM-1 (4.12E1 nM): -0.066
- CD106/VCAM-1 (4.12E1 nM): 0.066
- CXCL8/IL-8 (4.12E1 nM): -0.049
